Results: patent publication US9981942B2, “Piperidine derivatives having multimodal activity against pain” (LABORATORIOS DEL DR. ESTEVE S.A., priority 2013, dated 2018)

Each molecule was assayed on σ1 receptor and the μ-opiod receptor (assay: μ and σ1 dual binding: combined class from the Ki of both radioligand assays). Conditions: combined class for Ki-μ and Ki-σ1; transfected HEK-293 membranes (σ1), transfected CHO-K1 cell membranes (μ).
Parameters: species or system human; key to μ and σ1 dual binding: +: Both Ki-μ and Ki-σ1>=500 nM; ++: One Ki<500 nM while the other Ki is >=500 nM; +++: Both Ki-μ and Ki-σ1<500 nM; ++++: Both Ki-μ and Ki-σ1<100 nM
Procedure, shortened: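 Classes combine both Ki values, split at 500 nM and 100 nM. Human μ-opioid binding used 1 nM [3H]-DAMGO on CHO-K1 membranes (27 °C, 60 min, pH 7.4, naloxone 10 μM for NSB); human σ1 used 5 nM [3H](+)-pentazocine on HEK-293 membranes (37 °C, 120 min, pH 8, haloperidol 10 μM for NSB).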

Structure (SMILES) | μ and σ1 dual binding
CS(=O)(=O)Nc1cccc(C2CCN(Cc3cn(Cc4ccccn4)nn3)CC2)c1 [Example 98, N-(3-(1-((1-(pyridin-2-ylmethyl)-1H-1,2,3-triazol-4-yl)methyl)piperidin-4-yl)phenyl)methanesulfonamide] | ++
Oc1cccc(C2CCN(Cc3cn([C@@H]4CCC[C@H]4O)nn3)CC2)c1 (racemic) [Example 5, (±)-(trans)-3-(1-((1-(2-hydroxycyclopentyl)-1H-1,2,3-triazol-4-yl)methyl)piperidin-4-yl)phenol] | ++
CC(C)S(=O)(=O)Nc1cccc(C2CCN(Cc3cn(Cc4ncccc4Cl)nn3)CC2)n1 [Example 212, N-(6-(1-((1-((3-chloropyridin-2-yl)methyl)-1H-1,2,3-triazol-4-yl)methyl)piperidin-4-yl)pyridin-2-yl)propane-2-sulfonamide] | ++
Oc1cccc(C2CCN(Cc3nnn4c3-c3ccccc3C4)CC2)c1 [Example 120, 3-(1-((8H-[1,2,3]triazolo[5,1-a]isoindol-3-yl)methyl)piperidin-4-yl)phenol] | ++
Oc1cccc(C2CCN(Cc3cn(Cc4ccccn4)cn3)CC2)c1 [Example 188, 3-(1-((1-(pyridin-2-ylmethyl)-1H-imidazol-4-yl)methyl)piperidin-4-yl)phenol] | ++
CCC(=O)Nc1cccc(C2CCN(Cc3cn(Cc4ccccn4)nn3)CC2)c1 [Example 103, N-(3-(1-((1-(pyridin-2-ylmethyl)-1H-1,2,3-triazol-4-yl)methyl)piperidin-4-yl)phenyl)propionamide] | ++
COc1c(NS(C)(=O)=O)cccc1C1CCN(Cc2cn(Cc3ccccc3)nn2)CC1 [Example 102, N-(3-(1-((1-benzyl-1H-1,2,3-triazol-4-yl)methyl)piperidin-4-yl)-2-methoxyphenyl)methanesulfonamide] | ++
c1ccc(-n2cc(CN3CCC(c4cccc5[nH]cnc45)CC3)nn2)cc1 [Example 11, 4-(1-((1-phenyl-1H-1,2,3-triazol-4-yl)methyl)piperidin-4-yl)-1H-benzo[d]imidazole] | ++
CS(=O)(=O)Nc1cccc(C2CCN(Cc3cncn3Cc3ccccc3)CC2)c1 [Example 185, N-(3-(1-((1-benzyl-1H-imidazol-5-yl)methyl)piperidin-4-yl)phenyl)methanesulfonamide] | ++
CS(=O)(=O)Nc1cccc(C2CCN(Cc3cn([C@@H]4Cc5ccccc5[C@H]4O)nn3)CC2)c1 [Example 100, N-(3-(1-((1-((1R,2R)-1-hydroxy-2,3-dihydro-1H-inden-2-yl)-1H-1,2,3-triazol-4-yl)methyl)piperidin-4-yl)phenyl)methanesulfonamide] | ++
CS(=O)(=O)Nc1cccc(C2CCN(Cc3nnc(-c4ccccc4)o3)CC2)c1 [Example 175, N-(3-(1-((5-phenyl-1,3,4-oxadiazol-2-yl)methyl)piperidin-4-yl)phenyl)methanesulfonamide] | ++
CS(=O)(=O)Nc1cccc([C@@H]2CCN(Cc3cn(-c4ccccc4)nn3)C[C@@H]2O)c1 [Example 110, N-(3-((3R,4S)-3-hydroxy-1-((1-phenyl-1H-1,2,3-triazol-4-yl)methyl)piperidin-4-yl)phenyl)methanesulfonamide] | ++

Same assay, conditions: transfected HEK-293 membranes (σ1), transfected CHO-K1 cell membranes (μ)

Structure (SMILES) | Ki range for both μ and σ1 (dual-binding class)
CC(C)S(=O)(=O)Nc1cccc(C2CCN(Cc3cnn(Cc4cccc(F)n4)c3)CC2)c1 [Example 170, N-(3-(1-((1-((6-fluoropyridin-2-yl)methyl)-1H-pyrazol-4-yl)methyl)piperidin-4-yl)phenyl)propane-2-sulfonamide] | < 0.1 µM
CC(c1ccccc1)n1cc(CN2CCC(c3cccc(NS(C)(=O)=O)c3)CC2)nn1 (stereo not drawn) [Example 76, N-(3-(1-((1-(1-phenylethyl)-1H-1,2,3-triazol-4-yl)methyl)piperidin-4-yl)phenyl)methanesulfonamide] | < 0.5 µM
Oc1ccccc1C1CCN(Cc2cn(-c3ccccc3)nn2)CC1 [Example 222, 2-(1-((1-phenyl-1H-1,2,3-triazol-4-yl)methyl)piperidin-4-yl)phenol] | < 0.5 µM
Oc1cccc(C2CCN(Cc3cnn(Cc4ccccn4)c3)CC2)c1 [Example 171, 3-(1-((1-(pyridin-2-ylmethyl)-1H-pyrazol-4-yl)methyl)piperidin-4-yl)phenol] | < 0.5 µM
Oc1cccc(C2CCN(Cc3cn(Cc4ncccc4C(F)(F)F)nn3)CC2)c1 [Example 151, 3-(1-((1-((3-(trifluoromethyl)pyridin-2-yl)methyl)-1H-1,2,3-triazol-4-yl)methyl)piperidin-4-yl)phenol] | < 0.5 µM
CS(=O)(=O)Nc1cc(C2CCN(Cc3cn(-c4ccccc4)nn3)CC2)ccn1 [Example 197, N-(4-(1-((1-phenyl-1H-1,2,3-triazol-4-yl)methyl)piperidin-4-yl)pyridin-2-yl)methanesulfonamide] | ≥ 0.5 µM
COc1cccc(Cn2cc(CN3CCC(c4cccc(NS(=O)(=O)C(C)C)c4)CC3)nn2)n1 [Example 113] | < 0.1 µM
CC(C)NC(=O)c1cccc(C2CCN(Cc3cn(Cc4ccccc4)nn3)CC2)c1 [Example 51, 3-(1-((1-benzyl-1H-1,2,3-triazol-4-yl)methyl)piperidin-4-yl)-N-isopropylbenzamide] | ≥ 0.5 µM
Oc1cccc(C2CCN(Cc3cn(-c4ccncc4)nn3)CC2)c1 [Example 14, 3-(1-((1-(pyridin-4-yl)-1H-1,2,3-triazol-4-yl)methyl)piperidin-4-yl)phenol] | < 0.5 µM
Oc1cccc(C2CCN(Cc3cn(C4CCC(F)(F)CC4)nn3)CC2)c1 [Example 64, 3-(1-((1-(4,4-difluorocyclohexyl)-1H-1,2,3-triazol-4-yl)methyl)piperidin-4-yl)phenol] | < 0.1 µM
CC(c1ccccn1)n1cc(CN2CCC(c3cccc(O)c3)CC2)nn1 (stereo not drawn) [Example 75, 3-(1-((1-(1-(pyridin-2-yl)ethyl)-1H-1,2,3-triazol-4-yl)methyl)piperidin-4-yl)phenol] | < 0.5 µM
CCC(=O)Nc1cccc(C2CCN(Cc3cn(-c4ccccc4)nn3)CC2)c1 [Example 7, N-(3-(1-((1-phenyl-1H-1,2,3-triazol-4-yl)methyl)piperidin-4-yl)phenyl)propionamide] | < 0.5 µM
Oc1cccc(C2CCN(Cc3cn([C@@H]4c5ccccc5C[C@H]4O)nn3)CC2)c1 [Example 15, (1R,2R)-1-(4-((4-(3-hydroxyphenyl)piperidin-1-yl)methyl)-1H-1,2,3-triazol-1-yl)-2,3-dihydro-1H-inden-2-ol] | < 0.5 µM
Oc1cccc(C2CCN(Cc3cn(-c4ccc(F)cn4)nn3)CC2)c1 [Example 143, 3-(1-((1-(5-fluoropyridin-2-yl)-1H-1,2,3-triazol-4-yl)methyl)piperidin-4-yl)phenol] | < 0.1 µM
Oc1cccc(C2CCN(Cc3cn(-c4ccc(Cl)cn4)nn3)CC2)c1 [Example 148, 3-(1-((1-(5-chloropyridin-2-yl)-1H-1,2,3-triazol-4-yl)methyl)piperidin-4-yl)phenol] | < 0.1 µM
Oc1cccc(C2CCN(Cc3cn(Cc4ccccc4F)nn3)CC2)c1 [Example 4, 3-(1-((1-(2-fluorobenzyl)-1H-1,2,3-triazol-4-yl)methyl)piperidin-4-yl)phenol] | < 0.1 µM
COc1cccc(-n2cc(CN3CCC(c4cccc(O)c4)CC3)nn2)c1 [Example 44, 3-(1-((1-(3-methoxyphenyl)-1H-1,2,3-triazol-4-yl)methyl)piperidin-4-yl)phenol] | < 0.1 µM
CC(=O)Nc1nc2c(C3CCN(Cc4cn(-c5ccccc5)nn4)CC3)cccc2s1 [Example 49, N-(4-(1-((1-Phenyl-1H-1,2,3-triazol-4-yl)methyl)piperidin-4-yl)benzo[d]thiazol-2-yl)acetamide] | < 0.1 µM
Oc1cc(C2CCN(Cc3cn(Cc4ccccn4)nn3)CC2)ccc1F [Example 136, 2-fluoro-5-(1-((1-(pyridin-2-ylmethyl)-1H-1,2,3-triazol-4-yl)methyl)piperidin-4-yl)phenol] | < 0.5 µM
Oc1cccc(C2CCN(Cc3cn(-c4ccccc4F)nn3)CC2)c1 [Example 142, 3-(1-((1-(2-fluorophenyl)-1H-1,2,3-triazol-4-yl)methyl)piperidin-4-yl)phenol] | < 0.1 µM
c1ccc(Cn2cc(CN3CCC(c4cccc(Nc5nccs5)c4)CC3)nn2)nc1 [Example 229, N-(3-(1-((1-(pyridin-2-ylmethyl)-1H-1,2,3-triazol-4-yl)methyl)piperidin-4-yl)phenyl)thiazol-2-amine] | < 0.5 µM
Oc1cccc(C2CCN(Cc3cn(Cc4ccccn4)nn3)CC2)c1 [Example 55, 3-(1-((1-(pyridin-2-ylmethyl)-1H-1,2,3-triazol-4-yl)methyl)piperidin-4-yl)phenol] | < 0.5 µM
Cc1nnc(-c2cccc(C3CCN(Cc4cn(-c5ccccc5)nn4)CC3)c2)o1 [Example 42, 2-methyl-5-(3-(1-((1-phenyl-1H-1,2,3-triazol-4-yl)methyl)piperidin-4-yl)phenyl)-1,3,4-oxadiazole] | < 0.5 µM
Nc1cccc(C2CCN(Cc3cn(-c4ccccc4)nn3)CC2)c1 [Example 94, 3-(1-((1-phenyl-1H-1,2,3-triazol-4-yl)methyl)piperidin-4-yl)aniline] | < 0.1 µM
